What was measured:
Rheb = target: T1, Rheb (Homo sapiens, UniProt Q15382); assay: Rheb GTP Binding Domain Inhibition Assay; conditions: read-out: Rheb: % inh.
T1 construct: made in house
Method in brief: (§1)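 His-tagged cdc42 or Rheb (10–30 μg/mL) bound to nickel plates, then exposed to compound (20 μM, or serial dilutions for IC50) in 1% DMSO for 3 h at room temperature, ±Sos during final hour. Cy3- or Cy5-GTP (100 nM) added for 45 min; bound labelled GTP read by fluorescence after washes.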

cdc42 = target: T2, cdc42 (Homo sapiens, UniProt P60953); assay: Cdc42 GTP Binding Domain Inhibition Assay; conditions: read-out: Cdc42: % inh.
T2 construct: made in house
T2 sequence (P60953 whole entry, the tested form may be a part): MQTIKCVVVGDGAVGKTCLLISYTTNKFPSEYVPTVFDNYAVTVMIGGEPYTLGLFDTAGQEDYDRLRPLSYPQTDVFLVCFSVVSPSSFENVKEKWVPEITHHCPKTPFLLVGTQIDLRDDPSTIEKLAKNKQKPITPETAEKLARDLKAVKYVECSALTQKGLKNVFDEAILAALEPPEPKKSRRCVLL
Method in brief: as §1

[1] = Kinetic Solubility Assay in pH 7.4 Buffer + 2% DMSO; format: physicochemical; conditions: phosphate-buffered saline pH 7.4 with 2% DMSO, aqueous buffer, kinetic from dmso stock, 25° C., two hours
Method in brief: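 Compound from 20 mM DMSO stock diluted to nominal 400 μM in PBS pH 7.4 with 2% DMSO, in duplicate, shaken 2 h at 25° C., then filtered. Filtrate quantified by UV absorbance (230-550 nm) against 10-200 μM calibration curves; effective range ~2-400 μM.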

A375 (wild type Kras) = assay: Proliferation Assay (Cell Viability Assay); format: cell-based; conditions: Homo sapiens, A-375; Proliferation assay, A375; read-out: A375 IC50 (nM) Melanoma
Method in brief: (§2)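 Cells plated at 2000–5000/well overnight, then treated 2–4 days at 37 °C, 5% CO2 with compound at 10 μM single dose or serial dilutions for IC50, in 0.3% DMSO and 10% FBS. Viability read by CellTiter 96 Aqueous One (MTS); % proliferation inhibition calculated from raw data.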

[2] = test system: NCI-H358 (expressing KRas G12C mutant); assay: Proliferation Assay (Cell Viability Assay); format: cell-based; conditions: Homo sapiens; Proliferation assay, NCI-H358; read-out: NCI-H358 IC50 (nM) NSCLC
Method in brief: as §2

T1 sequence (Q15382 whole entry, the tested form may be a part): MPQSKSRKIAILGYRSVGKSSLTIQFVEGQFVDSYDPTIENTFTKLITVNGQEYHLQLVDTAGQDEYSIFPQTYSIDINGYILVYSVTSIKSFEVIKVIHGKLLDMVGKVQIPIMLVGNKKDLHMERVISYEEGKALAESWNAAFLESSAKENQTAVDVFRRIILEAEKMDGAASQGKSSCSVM

Compound	inhibition at 20 µM (Rheb)	inhibition at 20 µM (cdc42)	solubility at 2 h [1]	IC50 (A375 (wild type Kras))	IC50 [2]
COc1cccc(-c2cn3nc(-c4nccn4C)nc(N[C@@H]4CC[C@@H](OC)C4)c3c2-c2ccccc2)c1Cl.Cl (racemic) [Compound 34, rac 6-(2-Chloro-3-methoxyphenyl)-N-((1R,3R)-3-methoxycyclopentyl)-2-(1-methyl-1H-imidazol-2-yl)-5-phenylpyrrolo[2,1-f][1,2,4]triazin-4-amine hydrochloride]	26 to 49%	1 to 25%	–	–	–
Cc1c(-c2ccn(C(C)C)n2)cn2nc(-c3nccn3C)nc(Nc3ccn(C4CC4)n3)c12 [Compound 84, N-(1-Cyclopropyl-1H-pyrazol-3-yl)-6-(1-isopropyl-1H-pyrazol-3-yl)-5-methyl-2-(1-methyl-1H-imidazol-2-yl)pyrrolo[2,1-f][1,2,4]triazin-4-amine]	–	–	10 to 30 µM	1 to 10 nM	1 to 10 nM
Cc1c(-c2ccn(C(C)C)n2)cn2nc(-c3nccn3C)nc(Nc3noc(C4CC4)n3)c12 [Compound 75, 5-Cyclopropyl-N-(6-(1-isopropyl-1H-pyrazol-3-yl)-5-methyl-2-(1-methyl-1H-imidazol-2-yl)pyrrolo[2,1-f][1,2,4]triazin-4-yl)-1,2,4-oxadiazol-3-amine]	1 to 25%	1 to 25%	–	–	–

The next lines start with the values.

inhibition at 20 µM (Rheb)	inhibition at 20 µM (cdc42)	solubility at 2 h [1]	IC50 (A375 (wild type Kras))	IC50 [2]	Compound
0%	1 to 25%	–	–	–	COCCO[C@H]1C[C@H](Nc2nc(-c3nccn3C)nn3cc(-c4ccn(C(C)C)n4)c(C)c23)C1 [Compound 92, 6-(1-Isopropyl-1H-pyrazol-3-yl)-N-((1r,3r)-3-(2-methoxyethoxy)cyclobutyl)-5-methyl-2-(1-methyl-1H-imidazol-2-yl)pyrrolo[2,1-f][1,2,4]triazin-4-amine]
–	–	> 30 µM	1 to 10 nM	1 to 10 nM	Cc1c(-c2ccn(C(C)C)n2)cn2nc(-c3nccn3C)nc(Nc3cc4n(n3)CCO4)c12 [Compound 91, N-(6-(1-Isopropyl-1H-pyrazol-3-yl)-5-methyl-2-(1-methyl-1H-imidazol-2-yl)pyrrolo[2,1-f][1,2,4]triazin-4-yl)-2,3-dihydropyrazolo[5,1-b]oxazol-6-amine]

From patent US12459951B2, “Compounds that interact with RAS superfamily proteins for treatment of cancers, inflammatory diseases, rasopathies, and fibrotic disease” (SHY Therapeutics, LLC, priority 2022, dated 2025)
